The source of these data is ChEMBL document CHEMBL1132396, “Potent, orally bioavailable somatostatin agonists: good absorption achieved by urea backbone cyclization” (Bioorg Med Chem Lett, 1999).

SMILES strings stand for the structures. pIC50, pKi: −log10 of the molar value. Several values for one entry are separate records, joined by “and”; a condition that tells them apart may be missing. Equal values may be shown once. Some results are limits rather than exact numbers.

Data set [1] addresses Somatostatin receptor type 2 (Mus musculus, UniProt P30875). Description: In vitro binding affinity was evaluated against mouse Somatostatin receptor type 2 (mSSTR-2).
In data set [2] the target is T1, Somatostatin receptor type 2 (Homo sapiens, UniProt P30874). Description: In vitro binding affinity was evaluated against human Somatostatin receptor type 2 (hSSTR-2).
Data set [3] addresses T1, Somatostatin receptor type 2. Description: In vitro binding affinity was evaluated against human Somatostatin receptor type 2 in experiment 1.
Data set [4] has the same target. Description: In vitro binding affinity was evaluated against human Somatostatin receptor type 2 in experiment 2.
A short description of data set [5]: Bioavailability. The format is ADME, organism-based, Canis lupus familiaris. As to conditions: beagle, dog, in vivo.
Data set [6] is described as follows: Bioavailability after 2 mpk peroral administration to beagles. The format is ADME, organism-based, Canis lupus familiaris. As to conditions: Beagle, dog, in vivo, po, 2 mg/kg.
Data set [7] concerns the target Somatostatin receptor type 5 (Homo sapiens, UniProt P35346). Description: In vitro binding affinity was evaluated against human Somatostatin receptor type 5 (hSSTR-5).
Data set [8] can be described thus: Cmax value after 2 mpk peroral administration to beagles. The data set is classed as ADME, organism-based, Canis lupus familiaris. More on the design: dose 2 mpk, route oral. Particulars: Beagle, dog, in vivo, po, 2 mg/kg.
Data set [9] concerns the target Somatostatin receptor type 4 (Homo sapiens, UniProt P31391). Description: In vitro binding affinity was evaluated against human Somatostatin receptor type 4 (hSSTR-4).
In data set [10] the target is Somatostatin receptor type 3 (Homo sapiens, UniProt P32745). Description: In vitro binding affinity was evaluated against human Somatostatin receptor type 3 (hSSTR-3).
The nature of data set [11]: Area under curve after 2 mpk peroral administration to beagles. The format is ADME, Canis lupus familiaris. As to conditions: Beagle, dog, in vivo, po, 2 mg/kg.
Data set [12] concerns the target Somatostatin receptor type 1 (Homo sapiens, UniProt P30872). Description: In vitro binding affinity was evaluated against human Somatostatin receptor type 1 (hSSTR-1).
Data set [13] in a line: Area under curve after 1 mpk peroral administration to beagles. The data set is classed as ADME, Canis lupus familiaris. Particulars: Beagle, dog, in vivo, po, 1 mg/kg.
Data set [14] is described as follows: Cmax value after 1 mpk peroral administration to beagles. Further details: dose 1 mpk, route oral. Particulars: Beagle, dog, in vivo, po, 1 mg/kg. The data set is classed as ADME, organism-based, Canis lupus familiaris.
Data set [15] is described as follows: Bioavailability after 1 mpk peroral administration to beagles. The format is ADME, organism-based, Canis lupus familiaris. As to conditions: Beagle, dog, in vivo, po, 1 mg/kg.
The species entered for data set [16] is Rattus norvegicus. Description: Compound tested for the inhibition of growth hormone release was determined using primary cultures of rat anterior pituitary cells. The data set is classed as functional, cell-based. Particulars: Pituitary gland cell.

T1 sequence (P30874 whole entry): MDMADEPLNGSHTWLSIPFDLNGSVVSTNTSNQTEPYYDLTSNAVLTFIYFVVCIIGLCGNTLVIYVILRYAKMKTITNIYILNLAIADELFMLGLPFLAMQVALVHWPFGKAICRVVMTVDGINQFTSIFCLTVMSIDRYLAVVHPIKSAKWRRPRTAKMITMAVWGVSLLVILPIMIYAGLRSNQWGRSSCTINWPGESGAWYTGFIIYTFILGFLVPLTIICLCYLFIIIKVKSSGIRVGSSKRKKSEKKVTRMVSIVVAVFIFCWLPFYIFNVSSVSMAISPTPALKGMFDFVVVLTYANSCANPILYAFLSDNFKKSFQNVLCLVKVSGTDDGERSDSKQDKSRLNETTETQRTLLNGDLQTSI
Somatostatin receptor type 2 (Mus musculus, UniProt P30875), sequence (P30875 whole entry): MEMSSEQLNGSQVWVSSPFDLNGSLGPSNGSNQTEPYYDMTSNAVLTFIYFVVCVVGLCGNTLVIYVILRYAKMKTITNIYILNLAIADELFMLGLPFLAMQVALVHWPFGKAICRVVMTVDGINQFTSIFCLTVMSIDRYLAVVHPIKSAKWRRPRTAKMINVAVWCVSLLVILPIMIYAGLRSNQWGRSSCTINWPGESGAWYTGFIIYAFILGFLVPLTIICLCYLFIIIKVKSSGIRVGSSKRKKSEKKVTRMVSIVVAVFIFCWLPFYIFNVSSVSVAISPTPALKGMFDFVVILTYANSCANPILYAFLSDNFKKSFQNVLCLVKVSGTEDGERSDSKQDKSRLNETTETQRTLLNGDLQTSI
Somatostatin receptor type 3, sequence (P32745 whole entry): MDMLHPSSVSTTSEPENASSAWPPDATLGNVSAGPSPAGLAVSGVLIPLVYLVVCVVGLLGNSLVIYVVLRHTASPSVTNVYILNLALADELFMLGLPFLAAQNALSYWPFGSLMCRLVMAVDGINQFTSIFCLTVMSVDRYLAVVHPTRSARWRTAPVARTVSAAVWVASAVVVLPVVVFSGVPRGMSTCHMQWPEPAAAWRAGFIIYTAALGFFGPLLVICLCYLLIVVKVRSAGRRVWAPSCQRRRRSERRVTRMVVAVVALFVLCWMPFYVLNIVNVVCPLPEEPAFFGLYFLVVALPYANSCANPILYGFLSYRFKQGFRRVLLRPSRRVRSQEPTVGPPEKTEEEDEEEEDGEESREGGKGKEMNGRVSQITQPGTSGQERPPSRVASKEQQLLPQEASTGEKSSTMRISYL
Somatostatin receptor type 1, sequence (P30872 whole entry): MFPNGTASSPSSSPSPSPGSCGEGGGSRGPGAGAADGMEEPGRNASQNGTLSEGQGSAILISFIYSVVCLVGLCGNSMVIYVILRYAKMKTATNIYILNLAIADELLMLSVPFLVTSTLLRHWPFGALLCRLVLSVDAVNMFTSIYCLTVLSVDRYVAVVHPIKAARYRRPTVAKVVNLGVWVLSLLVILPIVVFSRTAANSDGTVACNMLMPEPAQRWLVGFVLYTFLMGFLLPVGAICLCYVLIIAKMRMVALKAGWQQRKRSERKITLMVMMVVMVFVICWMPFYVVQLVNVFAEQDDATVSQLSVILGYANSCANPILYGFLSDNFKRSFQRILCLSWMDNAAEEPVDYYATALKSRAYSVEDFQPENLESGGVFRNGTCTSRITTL
Somatostatin receptor type 4, sequence (P31391 whole entry): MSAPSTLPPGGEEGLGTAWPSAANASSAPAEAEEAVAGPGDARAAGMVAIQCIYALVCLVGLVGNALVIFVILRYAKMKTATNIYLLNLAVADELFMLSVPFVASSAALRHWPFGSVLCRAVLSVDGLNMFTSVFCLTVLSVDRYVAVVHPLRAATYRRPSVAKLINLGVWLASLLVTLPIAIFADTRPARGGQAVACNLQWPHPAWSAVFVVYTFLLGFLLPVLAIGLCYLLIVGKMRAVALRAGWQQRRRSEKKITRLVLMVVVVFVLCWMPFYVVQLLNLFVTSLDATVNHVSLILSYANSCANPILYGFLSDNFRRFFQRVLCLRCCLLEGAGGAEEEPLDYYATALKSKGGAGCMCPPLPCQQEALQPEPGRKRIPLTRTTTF

Turning to `CN(C(=O)N1CCC2(CCc3ccccc32)CC1)[C@H](Cc1c[nH]c2ccccc12)C(=O)NCCCCCN`, the pKi in [1] is < 8.00.

On to `COC(=O)[C@@H](CCCCN)NC(=O)[C@@H](Cc1c[nH]c2ccccc12)OC(=O)N1CCC2(CCc3ccccc32)CC1`, for which the pKi in [1] was 8.00.

Turning to `NCCCCCNC(=O)[C@@H](Cc1c[nH]c2ccccc12)NC(=O)N1CCC2(CCc3ccccc32)CC1`, in [1], the pKi was 8.00.

Take `C[C@@H](c1c[nH]c2ccccc12)[C@H](C(=O)N[C@H](CCCCN)C(=O)OC(C)(C)C)N1CCN(c2cccc(-c3ccccc3)c2)C1=O`: the pKi in [2] is 7.10.

On to `C[C@@H](c1c[nH]c2ccccc12)[C@H](C(=O)N[C@H](CCCCN)C(=O)OC(C)(C)C)N1CCN(C2CCC(c3ccccc3)CC2)C1=O` (stereo partly drawn), for which the pKi in data set [3] is 7.40; in data set [4] it was 8.20.

On to `C[C@@H](c1c[nH]c2ccccc12)[C@H](C(=O)NC[C@H]1OC[C@H](N)CO1)N1CCN(Cc2ccc(Cl)c(Cl)c2)C1=O`, for which the bioavailability in data set [5] amounted to 21%. In [2], this molecule gave a pKi of 8.14.

For the molecule `CC(CCN1CCN([C@@H](C(=O)N[C@H](CCCCN)C(=O)OC(C)(C)C)[C@@H](C)c2c[nH]c3ccccc23)C1=O)c1ccccc1` (stereo partly drawn), in data set [2], the pKi was 8.23.

In turn, `COC(=O)[C@@H](CCCCN)NC(=O)[C@@H](Cc1c[nH]c2ccccc12)NC(=O)N1CCC2(CCc3ccccc32)CC1` had a pKi in data set [1] of 8.70.

Regarding `C[C@@H](c1c[nH]c2ccccc12)[C@H](C(=O)N[C@H](CCCCN)C(=O)OC(C)(C)C)N1CCN(CCCc2ccccc2)C1=O`, in [6], the bioavailability is 5%. The pKi in [7] was 6.55; in data set [9], 7.08; in data set [2] it was 8.44; in [10], 5.89; in data set [12], 6.15. In [8], the Cmax turned out to be 350 ng/mL. Further, the AUC in data set [11] came to 837 ng·h/mL.

In data set [13], `C[C@@H](c1c[nH]c2ccccc12)[C@@H](NC(=O)N(C)CCCc1ccccc1)C(=O)N[C@H](CCCCN)C(=O)OC(C)(C)C` returned an AUC of 333 ng·h/mL. The pKi in data set [2] is 8.66. Further, in data set [14], the Cmax came out at 103 ng/mL.

As for `C[C@@H](c1c[nH]c2ccccc12)[C@H](C(=O)NC[C@H]1OC[C@H](N)CO1)N1CCN(CCCc2ccccc2)C1=O`, in data set [2], the pKi was 7.74.

For `C[C@@H](c1c[nH]c2ccccc12)[C@H](C(=O)N[C@H](CCCCN)C(=O)OC(C)(C)C)N1CCN(CCc2ccccc2)C1=O`, the pKi in data set [2] was 7.33.

Regarding `C[C@@H](c1c[nH]c2ccccc12)[C@H](C(=O)N[C@H](CCCCN)C(=O)OC(C)(C)C)N1CCN(Cc2ccccc2)C1=O`, in data set [2], the pKi was 7.85.

For the molecule `C[C@@H](c1c[nH]c2ccccc12)[C@H](C(=O)NC[C@H]1OC[C@H](N)CO1)N1CCN(CCC(c2ccccc2)c2ccccc2)C1=O`, in data set [2], the pKi was 8.07 and 8.96.

With `C[C@@H](c1c[nH]c2ccccc12)[C@H](C(=O)NC[C@H]1OC[C@H](N)CO1)N1CCN(CCc2cccc3ccccc23)C1=O`, in data set [2], the pKi is 6.91.

Regarding `C[C@@H](c1c[nH]c2ccccc12)[C@H](C(=O)NC[C@H]1OC[C@H](N)CO1)N1CCN(CCCn2c(O)nc3ccccc32)C1=O`, the pKi in [2] was 7.40.

As to `C[C@@H](c1c[nH]c2ccccc12)[C@H](C(=O)N[C@H](CCCCN)C(=O)OC(C)(C)C)N1CCN(Cc2ccc(C(F)(F)F)cc2)C1=O`, the bioavailability in data set [5] is 3%. The molecule also had a pKi in data set [2] of 8.89.

In turn, `CC(CCc1ccccc1)N1CCN([C@@H](C(=O)N[C@H](CCCCN)C(=O)OC(C)(C)C)[C@@H](C)c2c[nH]c3ccccc23)C1=O` (stereo partly drawn) gave a pKi in [2] of 7.92.

Turning to `C[C@@H](c1c[nH]c2ccccc12)[C@H](C(=O)N[C@H](CCCCN)C(=O)OC(C)(C)C)N1CCN(C2CCCN(c3ccccc3)C2)C1=O` (stereo partly drawn), the pKi in [2] was 8.85. Against the preceding molecule, the pKi is 0.93 log units higher.

Consider `C[C@@H](c1c[nH]c2ccccc12)[C@H](C(=O)N(C)C[C@H]1OC[C@H](N)CO1)N1CCN(CCC(c2ccccc2)c2ccccc2)C1=O`, for which the pKi in data set [2] is 8.34.

`C[C@@H](c1c[nH]c2ccccc12)[C@@H](NC(=O)NCCCc1ccccc1)C(=O)N[C@H](CCCCN)C(=O)OC(C)(C)C` yielded an AUC in data set [13] of 314 ng·h/mL. The molecule further had a pKi in data set [2] of 9.00. The bioavailability in data set [15] came out at 1%. Further, the Cmax in [14] worked out at 86 ng/mL.

`C[C@@H](c1c[nH]c2ccccc12)[C@H](C(=O)N(C)C[C@H]1OC[C@H](N)CO1)N1CCN(CCCc2ccccc2)C1=O`: in data set [2], the pKi was 7.96.

Consider `C[C@@H](c1c[nH]c2ccccc12)[C@H](C(=O)N(C)C[C@H]1OC[C@H](N)CO1)N1CCN(C2CCCN(c3ccccc3)C2)C1=O` (stereo partly drawn), for which the pKi was 8.68 in [3], 5.85 in [7], 7.85 in [4] and < 5.00 in data set [10]. In data set [5], this molecule came in with a bioavailability of 15%. Moreover, the pIC50 in [16] was 7.15.
